# Results published in patent publication US20090149417A1, “Methods and compositions for the treatment of cancer using benzopyrone-type PARP inhibitors” (priority 2007, published 2009).
# Several values for one entry are separate records, joined by “and”; a condition that tells them apart may be missing. Equal values may be shown once.
# Legend:
# [1] = system: Colo375FG metastatic pancreatic adenocarcinoma cells; test: Live cell number (Coulter counter, methylene blue, PI exclusion); format: cell-based, human
# Experimental: Colo375FG metastatic pancreatic adenocarcinoma cells are cultured in Dulbecco Modified Eagle Medium with 10% fetal bovine serum. Cells are plated at 10^5 per P100 or at 10^4 per P60 (for assays requiring up to 3 days of culture), in the presence of different concentrations of BiPar compounds and other agents, or DMSO control. Following treatment, the number of attached cells is measured using Coulter counter, and by staining with 1% methylene blue. Methylene blue is dissolved in 50%-50% mixture of Methanol and water. Cells are plated in 24- or 96-well plates and treated with compounds as indicated, then media are aspirated, cells are washed with PBS, fixed in methanol for 5-10 min, washed and the plates are allowed to dry completely. Methylene blue solution is added to wells and plates are incubated for 5 min. Staining solution is removed and plates are washed with dH2O. After plates are completely dry, a small amount of 1N HCl is added to each well to extract the methylene blue. The OD readout at 600 nm and a calibration curve are used to determine cell number.
# IIIg (6-nitro-5-iodo-benzopyrone) is dissolved directly from dry powder to 10 mM stock solution in DMSO for each separate experiment, and then the entire volume of the stock solution is used to prepare working concentrations in cell culture medium to avoid any possibility of precipitation and the corresponding loss of compound. Control experiments are carried out with the matching volume/concentration of the vehicle (DMSO).
# (§1) After the addition of drugs and incubation, cells are trypsinized and aliquots of the samples are taken for counting and PI (Propidium Iodide) exclusion assay. One part of the cells is centrifuged and resuspended in 0.5 ml ice-cold PBS containing 5 μg/ml of PI. The other part of the cells is fixed in ice-cold 70% ethanol and stored in a freezer overnight. For cell cycle analysis, cells are stained with propidium iodide (PI) by standard procedures. Cellular DNA content is determined by flow cytometry using BD LSRII FACS, and the percentages of cells in G1, S or G2/M are determined using ModFit software.
# Colo375FG metastatic pancreatic adenocarcinoma cells are obtained from ATCC and cultured in Dulbecco Modified Eagle Medium with 10% fetal bovine serum. Cells are plated at 10^5 cells per P100 cell culture dish or at 10^4 cells per P60 cell culture dish in the presence of different concentrations compounds or DMSO control. Following treatment, the number of attached cells is measured using Coulter counter, and by staining with 1% methylene blue. Methylene blue is dissolved in 50%-50% mixture of Methanol and water. Cells are plated in 24- or 96-well plates and treated as planned, media are aspirated, cells are washed with PBS, fixed in methanol for 5-10 min, methanol is aspirated and plates are allowed to dry completely. Methylene blue solution is added to wells and plates are incubated for 5 min. Staining solution is removed and plates are washed with dH2O until washes are no longer blue. After plates are completely dry, a small amount of 1N HCl is added to each well to extract the methylene blue. The OD readout at 600 nm and a calibration curve are used to determine cell number.
# Compounds of the invention are dissolved directly from dry powder to 10 mM stock solution in DMSO for each separate experiment. Control experiments are carried out with the matching volume/concentration of the vehicle (DMSO). In these controls, the cells show no changes in their growth or cell cycle distribution.
# as §1, with “ug/ml” for “μg/ml”, “Cellular DNA content is determined by flow cytometry using BD LSRII FACS, and the percentages of cells in G1, S or G2/M are determined using ModFit software.” left out
# [2] = system: Colo375FG metastatic pancreatic adenocarcinoma cells; test: TUNEL apoptosis assay (flow cytometry); format: cell-based, human; details: for Dead cells TUNEL (%): Compound IIIc 0 mM
# Experimental: Cells are labeled for apoptosis with the “In Situ Cell Death Detection Kit, Fluorescein” (Roche Diagnostics Corporation, Roche Applied Science, Indianapolis, Ind.). Briefly, fixed cells are centrifuged and washed once in phosphate-buffered saline (PBS) containing 1% bovine serum albumin (BSA), then resuspended in 2 ml permeabilization buffer (0.1% Triton X-100 and 0.1% sodium citrate in PBS) for 25 min at room temperature and washed twice in 0.2 ml PBS/1% BSA. The cells are resuspended in 50 μl TUNEL reaction mixture (TdT enzyme and labeling solution) and incubated for 60 min at 37° C. in a humidified dark atmosphere in an incubator. The labeled cells are washed once in PBS/1% BSA, then resuspended in 0.5 ml ice-cold PBS containing 1 μg/ml 4′,6-diamidino-2-phenylindole (DAPI) for at least 30 min. All cell samples are analyzed with a BD LSR II (BD Biosciences, San Jose, Calif.).
# The cells are labeled for apoptosis with the “In Situ Cell Death Detection Kit, Fluorescein” (Roche Diagnostics Corporation, Roche Applied Science, Indianapolis, Ind.). Briefly, fixed cells are centrifuged and washed once in phosphate-buffered saline (PBS) containing 1% bovine serum albumin (BSA), then resuspended in 2 ml permeabilization buffer (0.1% Triton X-100 and 0.1% sodium citrate in PBS) for 25 minutes at room temperature and washed twice in 0.2 ml PBS/1% BSA. The cells are resuspended in 50 μl TUNEL reaction mixture (TdT enzyme and labeling solution) and incubated for 60 min at 37° C. in a humidified dark atmosphere in an incubator. The labeled cells are washed once in PBS/1% BSA, then resuspended in 0.5 ml ice-cold PBS containing 1 μg/ml 4,6-diamidino-2-phenylindole (DAPI) for at least 30 min. All cell samples are analyzed with a BD LSR II (BD Biosciences, San Jose, Calif.).
# [3] = combination: IIIg 2.5 μM + OxaliPt 10 μM
# [4] = combination: IIIg 2.5 μM + OxaliPt 20 μM
# [5] = combination: IIIg 12.5 μM + OxaliPt 10 μM
# [6] = combination: IIIg 12.5 μM + OxaliPt 20 μM
# [7] = combination: IIIg 25 μM + OxaliPt 10 μM
# [8] = combination: IIIg 25 μM + OxaliPt 20 μM
smiles,measurement,setting,value
"O=c1ccc2c(I)c([N+](=O)[O-])ccc2o1 [IIIg, 5-iodo-6-nitro-benzopyrone]",Live Cell (%),"[1]; IIIg 2.5 μM, OxaliPt 0 μM",100% and 118%
same,Percentage of live cells,[1]; combination of IIIg and oxaliplatin,significantly reduces the percentage of live cells
same,Live Cell (%),[1]; [3],62%
same,Live Cell (%),[1]; [4],27%
same,Live Cell (%),[1]; [5],22%
same,Live Cell (%),[1]; [6],13%
same,Live Cell (%),[1]; [7],11%
same,Live Cell (%),[1]; [8],7%
same,TUNEL (%),"[2]; IIIg 2.5 μM, OxaliPt 0 μM",3.3% and 2.5%
same,TUNEL (%),[2]; [3],19%
same,TUNEL (%),[2]; [4],42%
same,TUNEL (%),[2]; [5],57.3%
same,TUNEL (%),[2]; [6],85.7%
same,TUNEL (%),[2]; [7],89.5%
same,TUNEL (%),[2]; [8],94.2%
"O=C1[O][Pt]2([NH][C@@H]3CCCC[C@H]3[NH]2)[O]C1=O [OxaliPt, oxaliplatin, reference compound]",Live Cell (%),"[1]; Compound IIIc 0 mM, OxaliPt 10 mM",54%
same,Live Cell (%),"[1]; Compound IIIc 0 mM, OxaliPt 20 mM",29%
same,Live Cell (%),"[1]; IIIg 0 μM, OxaliPt 10 μM",54%
same,Live Cell (%),"[1]; IIIg 0 μM, OxaliPt 20 μM",29%
same,Dead cells TUNEL (%),[2]; OxaliPt 10 mM,21.0%
same,Dead cells TUNEL (%),[2]; OxaliPt 20 mM,48.3%
same,TUNEL (%),"[2]; IIIg 0 μM, OxaliPt 10 μM",21%
same,TUNEL (%),"[2]; IIIg 0 μM, OxaliPt 20 μM",48.3%
